Consider 24 compounds from ChEMBL document CHEMBL2046334, “New farnesyltransferase inhibitors in the phenothiazine series” (Bioorg Med Chem Lett, 2012).

Calls of active or inactive are those of the source. The rule behind the calls is not given here.

The target of test [1] is T1, Protein farnesyltransferase (Homo sapiens, UniProt P49354+P49356). Description: Inhibition of partially purified human recombinant FTase measured for 15 mins by automated fluorescence based assay. It is filed as protein-complex assay.
Test [2] addresses T1, Protein farnesyltransferase. Description: Inhibition of partially purified human recombinant FTase at 100 uM measured for 15 mins by automated fluorescence based assay relative to control. It is filed as protein-complex assay.
The test system of a further test is HL-60(TB). Description: Growth inhibition of human HL-60(TB) cells at 10 uM after 48 hrs by sulforhodamine B assay relative to control. It is filed as functional. The note with it: HL-60, 48 h, read-out: GI. For orientation: Sulforhodamine B stains cellular protein and so reports cell mass.
The next test concerns LOX IMVI. Description: Growth inhibition of human LOXIMVI cells at 10 uM after 48 hrs by sulforhodamine B assay relative to control. It is filed as functional. Particulars: for inhibition of growth at 10 µM: read-out: GI.
Another test relates to RPMI-8226. Description: Growth inhibition of human RPMI8226 cells at 10 uM after 48 hrs by sulforhodamine B assay relative to control. It is filed as functional. The note with it: RPMI-8226, 48 h, read-out: GI.
Another test has as its system UO-31. Description: Growth inhibition of human UO31 cells at 10 uM after 48 hrs by sulforhodamine B assay relative to control. It is filed as functional. The note with it: UO-31, 48 h, read-out: GI.
The test system of the next test is CAKI-1. Description: Growth inhibition of human Caki1 cells at 10 uM after 48 hrs by sulforhodamine B assay relative to control. The test is classed as functional. The note with it: CAKI-1, 48 h, read-out: GI.
The test system of a further test is OVCAR-8. Description: Growth inhibition of human OVCAR8 cells at 10 uM after 48 hrs by sulforhodamine B assay relative to control. The test is classed as functional. Particulars: for inhibition of growth at 10 µM: OVCAR-8, 48 h, read-out: GI.
Another test has as its system CCRF-CEM. Description: Growth inhibition of human CCRF-CEM cells at 10 uM after 48 hrs by sulforhodamine B assay relative to control. It is filed as functional. The note with it: read-out: GI.
The test system of a further test is T47D. Description: Growth inhibition of human T47D cells at 10 uM after 48 hrs by sulforhodamine B assay relative to control. It is filed as functional. The note with it: read-out: GI.
Another test concerns MDA-MB-231. Description: Growth inhibition of human MDA-MB-231 cells at 10 uM after 48 hrs by sulforhodamine B assay relative to control. It is filed as functional. Particulars: MDA-MB-231, 48 h, read-out: GI.
The subject of a further test is EKVX. Description: Growth inhibition of human EKVX cells at 10 uM after 48 hrs by sulforhodamine B assay relative to control. It is filed as functional. The note with it: for inhibition of growth at 10 µM: read-out: GI.
For a further test, the system named is SNB-75. Description: Growth inhibition of human SNB75 cells at 10 uM after 48 hrs by sulforhodamine B assay relative to control. It is filed as functional. The note with it: SNB-75, 48 h, read-out: GI.
In the next test the test system is HCT-15. Description: Growth inhibition of human HCT15 cells at 10 uM after 48 hrs by sulforhodamine B assay relative to control. It is filed as functional. The note with it: for inhibition of growth at 10 µM: HCT-15, 48 h, read-out: GI.
Another test relates to UACC-62. Description: Growth inhibition of human UACC62 cells at 10 uM after 48 hrs by sulforhodamine B assay relative to control. It is filed as functional. The note with it: UACC-62, 48 h, read-out: GI.
For the next test, the system named is MOLT-4. Description: Growth inhibition of human MOLT4 cells at 10 uM after 48 hrs by sulforhodamine B assay relative to control. The test is classed as functional. Particulars: MOLT-4, 48 h, read-out: GI.
The test system of a further test is PC-3. Description: Growth inhibition of human PC3 cells at 10 uM after 48 hrs by sulforhodamine B assay relative to control. The test is classed as functional. Particulars: PC-3, 48 h, read-out: GI.
The subject of a further test is SK-MEL-5. Description: Growth inhibition of human SK-MEL-5 cells at 10 uM after 48 hrs by sulforhodamine B assay relative to control. The test is classed as functional. The note with it: SK-MEL-5, 48 h, read-out: GI.

Consider `O=C(CCN1c2ccccc2Sc2ccccc21)OCc1cn(CC(=O)c2ccc(Br)cc2)nn1`, for which the IC50 in test [1] is 1.3 µM.

Consider `O=C(CCN1c2ccccc2Sc2ccccc21)OCc1cn(CC(=O)c2ccc(F)cc2)nn1`, for which, in [2], the inhibition was 35.2%.

As for `O=C(CCN1c2ccccc2Sc2ccccc21)NCc1cn(CC(=O)N2c3ccccc3Sc3ccccc32)nn1`, in test [2], the inhibition is 0%.

As for `O=C(CCN1c2ccccc2Sc2ccccc21)NCc1cn(CC(=O)c2ccc(F)cc2)nn1`, the inhibition in [2] was 52.6%. Besides, the inhibition of growth at 10 µM in the test on HL-60(TB) was 20%; with LOX IMVI, 12%; in the test on RPMI-8226, 3%; in the test on UO-31, 18%; in the test on CAKI-1, 17%; in the test with CCRF-CEM it was 20%. In addition, the inhibition of growth at 10 µM amounted to 7% in the test with T47D; 3% in the test on MDA-MB-231; 22% with EKVX; 19% with SNB-75; 14% with UACC-62; 38% in the test on MOLT-4. The results for the inhibition of growth at 10 µM in the test with PC-3 and with SK-MEL-5 were 26% and 14%, respectively. For the same compound, the “growth inhibition (GI)” value in the test with OVCAR-8 and in the test with HCT-15 was “inactive” in each case.

As for `O=C(CN1c2ccccc2Sc2ccccc21)NCc1cn(CC(=O)c2ccc(F)cc2)nn1`, in [2], the inhibition was found to be 0%.

For the compound `COc1ccc(C(=O)Cn2cc(CNC(=O)CCN3c4ccccc4Sc4ccccc43)nn2)cc1`, the inhibition in [2] is 29.3%.

`O=C(CN1c2ccccc2Sc2ccccc21)OCc1cn(CC(=O)c2ccc(F)cc2)nn1`: the inhibition in [2] is 31.9%.

As to `N#Cc1ccc(C(=O)Cn2cc(COC(=O)CCN3c4ccccc4Sc4ccccc43)nn2)cc1`, the inhibition in [2] came to 55.1%.

`O=C(CCN1c2ccccc2Sc2ccccc21)NCc1cn(CC(=O)c2ccc(Cl)cc2)nn1`: the inhibition of growth at 10 µM with HL-60(TB) was 68%; with LOX IMVI, 9%; in the test with RPMI-8226, 19%; in the test on UO-31, 36%; in the test with CAKI-1, 32%; in the test on OVCAR-8, 17%. Also, the inhibition of growth at 10 µM came out at 19% in the test on CCRF-CEM; 22% with T47D; 4% in the test with MDA-MB-231; 30% in the test on EKVX; 20% in the test on SNB-75; 8% in the test with HCT-15. Moreover, the inhibition of growth at 10 µM turned out to be 26% in the test on UACC-62, 40% with MOLT-4, 38% with PC-3 and 13% with SK-MEL-5. Moreover, the IC50 in test [1] amounted to 7.7 µM.

As for `O=C(CN1c2ccccc2Sc2ccccc21)NCc1cn(CC(=O)N2c3ccccc3Sc3ccccc32)nn1`, the inhibition in test [2] came to 0%.

With `Cc1ccc(C(=O)Cn2cc(COC(=O)CCN3c4ccccc4Sc4ccccc43)nn2)cc1`, in [2], the inhibition was found to be 10.7%.

Take `N#Cc1ccc(C(=O)Cn2cc(CNC(=O)CN3c4ccccc4Sc4ccccc43)nn2)cc1`: the inhibition in [2] was found to be 24.9%.

For `COc1ccc(C(=O)Cn2cc(CNC(=O)CN3c4ccccc4Sc4ccccc43)nn2)cc1`, the inhibition in test [2] was 24.4%.

For the compound `O=C(CCN1c2ccccc2Sc2ccccc21)NCc1cn(CC(=O)c2ccc(Br)cc2)nn1`, the inhibition of growth at 10 µM with HL-60(TB) was 41%; in the test with LOX IMVI, 17%; in the test with RPMI-8226 it was 15%; with UO-31, 42%; in the test with CAKI-1 it was 37%; in the test on CCRF-CEM, 18%. For the same compound, the inhibition of growth at 10 µM came to 29% in the test on T47D; 14% with MDA-MB-231; 24% in the test on EKVX; 18% in the test on SNB-75; 7% in the test on HCT-15; 29% in the test on UACC-62. The inhibition of growth at 10 µM with MOLT-4 came to 34%; in the test with PC-3, 42%; in the test with SK-MEL-5, 24%. The IC50 in [1] stood at 8.3 µM. Besides, the “growth inhibition (GI)” value in the test on OVCAR-8 is “inactive”.

Consider `Cc1ccc(C(=O)Cn2cc(CNC(=O)CN3c4ccccc4Sc4ccccc43)nn2)cc1`, for which, in test [2], the inhibition came to 19%.

With `O=C(CN1c2ccccc2Sc2ccccc21)NCc1cn(CC(=O)N2c3ccccc3Sc3ccc(Cl)cc32)nn1`, the inhibition in test [2] was found to be 0%.

Take `O=C(CCN1c2ccccc2Sc2ccccc21)OCc1cn(CC(=O)c2ccc(Cl)cc2)nn1`: the IC50 in test [1] came out at 1.5 µM.

For `O=C(CN1c2ccccc2Sc2ccccc21)OCc1cn(CC(=O)c2ccc(Br)cc2)nn1`, in test [2], the inhibition was 35.5%.

For `N#Cc1ccc(C(=O)Cn2cc(COC(=O)CN3c4ccccc4Sc4ccccc43)nn2)cc1`, in test [2], the inhibition amounted to 20.7%.

As to `COc1ccc(C(=O)Cn2cc(COC(=O)CCN3c4ccccc4Sc4ccccc43)nn2)cc1`, in test [2], the inhibition amounted to 22.3%.

Turning to `N#Cc1ccc(C(=O)Cn2cc(CNC(=O)CCN3c4ccccc4Sc4ccccc43)nn2)cc1`, in [1], the IC50 was determined as 5.2 µM.

For the compound `O=C(CN1c2ccccc2Sc2ccccc21)NCc1cn(CC(=O)c2ccc(Cl)cc2)nn1`, the inhibition in test [2] was determined as 40%.

As for `O=C(CN1c2ccccc2Sc2ccccc21)NCc1cn(CC(=O)c2ccc(Br)cc2)nn1`, the inhibition of growth at 10 µM is 13% with HL-60(TB); 22% with RPMI-8226; 13% in the test on UO-31; 13% with CAKI-1; 6% in the test with OVCAR-8; 17% with CCRF-CEM. Also, the inhibition of growth at 10 µM in the test with T47D was found to be 12%; in the test on MDA-MB-231 it was 9%; in the test on SNB-75, 18%; in the test on HCT-15, 16%; with UACC-62 it was 25%; with MOLT-4 it was 42%. In addition, the inhibition of growth at 10 µM in the test on SK-MEL-5 was found to be 5%. In addition, the “growth inhibition (GI)” value in the test with LOX IMVI and in the test with EKVX was “inactive” throughout. The IC50 in test [1] is 24.3 µM.

Consider `Cc1ccc(C(=O)Cn2cc(CNC(=O)CCN3c4ccccc4Sc4ccccc43)nn2)cc1`, for which, in test [2], the inhibition turned out to be 44.2%.

What is called IC50 is the concentration that inhibits the measured activity by half. A word on the inhibition: it is the drop in the measured response relative to a control, in per cent.
